The test system of experiment [1] is HBG mRNA in human CD34+ HSC. The experiment can be described thus: HBG mRNA level in human CD34+ HSC (qRT-PCR). The settings on record: 7 days of treatment. In kind it is cell-based. The method, then:
Human cord blood CD34+ hematopoietic stem cells (HSC) were first expanded in the expansion medium (StemSpan SFEM II+StemSpan CD34 Expansion Supplement) to achieve the desired number of cells, and then differentiated in differentiation medium (StemSpan SFEM II+StemSpan Erythroid Expansion Supplement (100×)) for three days without drug treatment. Various concentrations of Cpd. 73 were added on the fourth day of differentiation and further incubated with the cells for another 7 days. 33 mM Hydroxyurea was used as the control.
After 7 days of treatment, the cells were collected. Total RNA was isolated using Trizol LS reagent (Invitrogen-10296028) and 1 μg RNA of each sample was reverse transcribed into cDNA using High Capacity cDNA Reverse Transcription Kit (AB (Applied Biosystems)-4374966), according to the manufacturer's instructions. Quantitative RT-PCR (qRT-PCR) was performed using an Applied Biosystems QuantStudio 7 Flex system with the primer pairs shown as below: hHBG-mRNA-F1 (5′-[…]-3′) and hHBG-mRNA-R1 (5′-TCACTCAGCTGGGCAAAGG-3′). […] The HBG mRNA level were 1.09-, 2.49-, 7.84-, 9.69- and 12.2-folds of the vehicle group when the cells were treated with 0.01 μM, 0.03 μM, 0.1 μM, 0.3 μM and 1.0 μM Cpd. 73 respectively. […] 73 which increased HBG mRNA by 12.2 folds (p<0.0001, vs. vehicle). The HBG mRNA level of cells treated with 33 mM Hydroxyurea, an approved medicine for SCD, was 6.46-folds of the vehicle group.
On the technique in general: Real-time PCR tracks product formation cycle by cycle.

For experiment [2], the system named is chronic kidney disease-induced anemia in SD rats. The experiment can be described thus: Rat model of chronic kidney disease-induced anemia (adenine). In kind it is in vivo. The following applies: 5, 15, 45 mg/kg po QD×4 weeks, end of study. On the procedure: SPF-grade male SD rats (200±20 g, 8 weeks) were purchased from Zhejiang Vital River Laboratory Animal Technology Co., Ltd. After acclimating for a week, blood samples were collected and analyzed to exclude anormal animals. The normal animals were randomized, 10 animals were assigned into Control group which were left untreated until the end of the study, and the rest animals received 300 mg/kg adenine by oral gavage (QD×6 weeks). […] Then 60 adenine-treated rats with successful model establishment were further randomized into the following six groups: Model group (treated with vehicle), EPO group (50 U/kg), Cpd. 73 5 mg/kg group, Cpd. 73 15 mg/kg group, Cpd. 73 45 mg/kg group and CPD. 73+EPO group (15 mg/kg+50 U/kg). Each group contained 10 animals. Cpd. 73 was administered to rats by oral gavage (QD×4 weeks), while EPO was subcutaneously administered (TIW×4 weeks).
Body weight, mortality and health condition of rats were recorded twice a week. After model establishment, blood samples were take from the orbit and a few parameters were determined including RBC, HGB, HCT, RET, BUN and Creatine. Blood samples were taken once a week during drug treatment and RBC, HGB, HCT, and RET were analyzed.

The subject of experiment [3] is CD4+CD45RBhigh T-cell transfer-induced IBD in CB17 mice. The experiment can be described thus: T cell transfer induced inflammatory bowel disease (IBD) model. In kind it is in vivo. The settings on record: 90 mg/kg po qd day 14 to day 41. The source says:
Female CB17 mice (8 weeks old) were obtained from Zhejiang Vital River Laboratory Animal Co. Ltd. Animals were housed and handled in a temperature-controlled environment with a 12-h light/12-h dark cycle. A total of 30 mice were assigned to 3 groups by randomization based on body weight.
To generate T cell transfer induced colitis, 95 female Balb/c mice, aged 8-10 weeks, were used to prepare naive CD4^+CD45RB^high T and CD4^+CD45RB^low T cells. The mouse spleens were harvested in precooled DPBS, grinded into cell suspension and passed through a 70 μm cell filter after erythrocytes lysed by ACK. Cells were collected and counted by centrifugation. Then, CD4 positive T cells were isolated by using negative magnetic bead separation kit. CD4^+CD45RB^high naive T cells were selected by flow cytometry and used for model construction. 20 CB17 model mice were intraperitoneally injected with 5×10^5 naive CD4^+CD45RB^high T cells each on Day 0. 10 mice in negative control group were intraperitoneally injected with 5×10^5 CD4^+CD45RB^low T cells on Day 0.
Mice in Group 2 were treated with vehicle for 28 days (po, qd, from day 14 to day 41). Mice in Group 3 were treated with 90 mg/kg Cpd. 73 for 28 days (therapeutic regimen, po, qd, from day 14 to day 41). The protocols and procedures involving the care and use of animals were approved by the Institutional Animal Care and Use Committee (IACUC) at WuxiApptec (Shanghai, China).
Clinical signs of IBD were assessed every day based on the score of disease activity index (DAI) which was evaluated from two parameters using a scoring system from 0 to 4: stool consistency (0, normal stool; 1, soft but still formed stool; 2, soft and not formed stool; 3, very soft and wet stool; 4, watery diarrhea), and body weight loss (0, no body weight loos; 1, 1-5% body weight loss; 2, 6-10% body weight loss; 3, 11-20% body weight loss; 4, >20% body weight loss).
At the end of the study (day 42), the animals were euthanized, dissected and the entire colon was quickly removed and gently cleared of feces.
At the end of the study (day 42), all the animals were sacrificed by CO2. The colon was Swiss-rolled and fixed with neutralized PFA followed by H&E staining. After that, the pathologists from WuXi clinical pathological analysis platform, who were blinded to animal ID, reviewed the H&E staining and scored. The pathological scoring standards were as follows: crypt architecture (normal, 0; severe crypt distortion with loss of entire crypts, 3), degree of inflammatory cell infiltration (normal, 0; dense inflammatory infiltrate, 3), muscle thickening (normal, 0; marked muscle thickening present, 3), goblet cell depletion (absent, 0; present, 1) and crypt abscess (absent, 0; present, 1).

The values below come from US20240366611A1, “METHODS OF TREATING A DISEASE OR DISORDER” (Ascentage Pharma (Suzhou) Co., Ltd., priority 2021, published 2024).

With `CC(C)N1Cc2cc(C(F)(F)F)ncc2-c2cnc(NCc3c(F)ccc4c3CCO4)n3cnc(c23)C1=O` [Cpd. 73, 12-(((5-fluoro-2,3-dihydrobenzofuran-4-yl)methyl)amino)-4-isopropyl-7-(trifluoromethyl)-4,5-dihydro-3H-2,4,8,11,12a-pentaazabenzo[4,5]cycloocta[1,2,3-cd]inden-3-one], the “HBG mRNA level, folds of the vehicle group” value in experiment [1] (0.01 μM) is listed as 1.09 folds; in experiment [1] (0.03 μM) it was 2.49 folds; in experiment [1] (0.1 μM), 7.84 folds; in experiment [1] (0.3 μM) it was 9.69 folds; in experiment [1] (1.0 μM, maximal effect, p<0.0001 vs vehicle), 12.2 folds. Further, the body weight result in experiment [2] (p<0.001 or 0.01 vs Model) is recorded as “dose-dependently improved”. Further, the HCT entry in experiment [2] (p<0.001 or 0.05 vs Model) is “dose-dependently improved”. In addition, in experiment [2] (p<0.001 or 0.05 vs Model), the HGB result is listed as “dose-dependently improved”. Further, the RBC entry in experiment [2] (p<0.001 or 0.05 vs Model) was “dose-dependently improved”. In addition, the RET result in experiment [2] (p<0.001 or 0.05 vs Model) is on record as “dose-dependently improved”. Besides, the body weight loss result in experiment [3] is listed as “improved”. In addition, in experiment [3] (day 42, vehicle 7.72±0.18 cm), the colon length is listed as 10.26±0.22 cm. The “pathological score (H&E, colon)” value in experiment [3] (day 42, vehicle 9.00±0.47) is 3.70±0.37. In experiment [3] (day 42, vehicle 439.10±25.46 mg), this compound registered a colon weight of 323.40 ± 16.06 mg. For the same compound, the DAI score in experiment [3] (on day 42, vehicle 4.90±0.41) worked out at 1.4±0.27.
